# From US20230150951A1, “2,5- OR 2,6-DISUBSTITUTED HYDROQUINONE DERIVATIVES WITH AT LEAST ONE CARBOXY, SULFO OR AMIDO GROUP USEFUL AS MEDICAMENTS” (OM PHARMA SA, priority 2020, published 2023)
# Experiments:
# Assay type in all cases: cell-based
# Human neutrophils [1] = experiment: Inhibition of ROS production in human neutrophils (isoluminol chemiluminescence); settings: Homo sapiens, Neutrophil, fMLP+TNF-α stimulated PMN
# Summary of the method: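 Extracellular ROS measured as isoluminol-amplified chemiluminescence following 1 μM fMLP activation on fibrinogen-coated plates, readings every 25 sec over 250 sec minus HBSS/isoluminol background. Beforehand, cells were treated with compounds at 0.1, 0.3, 1, 3 or 10 μM (30 min, 37° C) and TNF-α (20 ng/ml, 10 min); duplicate or triplicate.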
# FGF-2 = target: T1, FGF-2 (Homo sapiens, UniProt P09038); experiment: FGF-2 induced sprouting of HUVEC, spheroid-based cellular angiogenesis assay; settings: FGF-2 25 ng/mL preincubated with compound, 24 h
# T1 construct: purchased Peprotech 100-18C
# T1 sequence (P09038 134-288): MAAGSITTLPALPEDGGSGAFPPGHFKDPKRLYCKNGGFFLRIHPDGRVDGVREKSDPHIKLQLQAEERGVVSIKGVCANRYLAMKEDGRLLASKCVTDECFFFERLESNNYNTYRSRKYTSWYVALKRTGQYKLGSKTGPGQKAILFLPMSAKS
# Summary of the method: (§1)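 Compound (final 100 down to 1.56×10^−6 M) was mixed with growth factor (final 25 ng/mL) for 30 min at 37°C, then added onto collagen-embedded 400-cell HUVEC spheroids.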
# FGF-1 = target: T2, FGF-1 (Homo sapiens, UniProt P05230); experiment: FGF-1 induced sprouting of HUVEC, spheroid-based cellular angiogenesis assay; settings: FGF-1 25 ng/mL preincubated with compound, 24 h
# T2 construct: purchased Peprotech 100-17A
# T2 sequence (P05230 whole entry): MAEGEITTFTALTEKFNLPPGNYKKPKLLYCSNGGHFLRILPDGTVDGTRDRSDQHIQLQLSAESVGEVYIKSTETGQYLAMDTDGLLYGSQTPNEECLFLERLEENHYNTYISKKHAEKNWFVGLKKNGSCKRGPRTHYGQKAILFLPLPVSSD
# Summary of the method: as §1
# VEGFR-2 = target: T3, VEGFR-2 (Homo sapiens, UniProt P35968); experiment: VEGF-165 induced phosphorylation of VEGF-Receptor on HUVEC; settings: HUVEC preincubated 60 min, VEGF165 25 ng/mL 2 min; read-out: VEGFR-Phosphorylation inhibition IC50
# T3 construct: endogenous in cells; host or cells: primary HUVEC
# T3 sequence (P35968 20-1356): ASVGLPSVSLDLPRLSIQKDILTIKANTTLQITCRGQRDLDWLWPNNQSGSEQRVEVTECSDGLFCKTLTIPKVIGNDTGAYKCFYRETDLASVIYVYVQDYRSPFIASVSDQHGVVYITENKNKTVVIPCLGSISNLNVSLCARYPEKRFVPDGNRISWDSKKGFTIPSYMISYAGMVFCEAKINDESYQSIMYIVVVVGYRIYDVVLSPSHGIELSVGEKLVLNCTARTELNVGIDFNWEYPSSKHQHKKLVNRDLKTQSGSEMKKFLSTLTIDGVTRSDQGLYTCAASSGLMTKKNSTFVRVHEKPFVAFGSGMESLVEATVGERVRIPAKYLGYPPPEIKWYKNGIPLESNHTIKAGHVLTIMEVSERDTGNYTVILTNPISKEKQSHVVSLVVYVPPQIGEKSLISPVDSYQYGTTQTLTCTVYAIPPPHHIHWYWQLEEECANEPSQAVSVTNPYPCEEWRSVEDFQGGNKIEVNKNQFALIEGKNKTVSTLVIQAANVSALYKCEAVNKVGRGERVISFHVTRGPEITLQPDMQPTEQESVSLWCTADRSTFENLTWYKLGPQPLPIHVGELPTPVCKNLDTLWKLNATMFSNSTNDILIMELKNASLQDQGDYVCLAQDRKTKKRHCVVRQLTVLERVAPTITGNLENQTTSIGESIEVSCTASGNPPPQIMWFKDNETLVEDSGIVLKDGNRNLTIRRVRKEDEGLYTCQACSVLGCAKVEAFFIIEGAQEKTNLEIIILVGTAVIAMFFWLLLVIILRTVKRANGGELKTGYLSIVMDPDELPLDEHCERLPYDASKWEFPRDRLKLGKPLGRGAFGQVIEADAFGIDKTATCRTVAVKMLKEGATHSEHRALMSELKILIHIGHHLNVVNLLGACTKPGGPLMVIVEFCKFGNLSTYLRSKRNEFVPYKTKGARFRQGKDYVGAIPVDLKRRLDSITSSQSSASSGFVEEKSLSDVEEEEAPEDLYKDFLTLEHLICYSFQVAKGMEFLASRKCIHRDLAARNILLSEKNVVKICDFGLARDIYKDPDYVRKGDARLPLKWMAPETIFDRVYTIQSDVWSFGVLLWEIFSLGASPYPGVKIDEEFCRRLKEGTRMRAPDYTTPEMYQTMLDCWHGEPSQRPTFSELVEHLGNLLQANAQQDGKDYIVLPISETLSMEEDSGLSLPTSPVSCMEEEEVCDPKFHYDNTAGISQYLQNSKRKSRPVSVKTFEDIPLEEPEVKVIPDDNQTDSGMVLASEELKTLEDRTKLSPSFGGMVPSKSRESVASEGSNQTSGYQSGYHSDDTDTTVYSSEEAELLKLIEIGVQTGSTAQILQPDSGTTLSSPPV
# VEGF-A = target: T4, VEGF-A (Homo sapiens, UniProt P15692); experiment: VEGF-A induced sprouting of HUVEC, spheroid-based cellular angiogenesis assay; settings: VEGF-A 25 ng/mL preincubated with compound, 24 h, read-out: VEGF-A1 IC50
# T4 construct: purchased ProQinase GmbH
# T4 sequence (P15692 27-191 isoform P15692-4): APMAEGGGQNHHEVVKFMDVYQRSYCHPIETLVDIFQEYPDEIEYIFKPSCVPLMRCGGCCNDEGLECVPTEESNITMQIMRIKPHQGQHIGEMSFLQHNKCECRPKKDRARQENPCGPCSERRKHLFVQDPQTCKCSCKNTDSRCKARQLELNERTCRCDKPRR
# Procedure: Aim of this in vitro method is to assess compounds effects on FGF-2, FGF-1, or VEGF-A induced sprouting of human umbilical vein endothelial cells (HUVEC) in the spheroid-based cellular angiogenesis assay. Before adding the growth factors to the cells, they were preincubated with the compound. Sunitinib was tested as a control (without preincubation).
# IC50 values determined for the tested compounds are expressed in microM [μM] and the values for the inhibition of FGF-1, FGF2 and VEGF-A induced growth (sprouting) are listed after each compound in the examples after chemical characterization.
# Sprouting test was performed on the compounds dissolved in DMSO to reach 100-fold concentrated stock solutions and dissolved in culture media. Sunitinib as reference compound was provided by ProQinase GmbH. Growth factors were purchased from rhFGF-basic (FGF-2), Peprotech, New Jersey, USA, #100-18C, Lot #0415571; rhFGF-acidic (FGF-1), Peprotech, New Jersey, USA, #100-17A, Lot #031207; hVEGF-A165 (ProQinase GmbH, Freiburg, Germany; 05.02.2010) were used for stimulation of HUVEC cells growth.
# Test system: Endothelial cells from human umbilical vein (HUVEC) from pooled donors were stored frozen with 70% medium, 20% FCS, 10% DMSO at about 1×10^6 cells/ampoule. HUVEC cells, primary human umbilical vein endothelial cells (PromoCell, Heidelberg, Germany), were used after passage 3 to 4. Morphology of the cells are adherent, cobblestone-like growing as monolayer and were cultured in endothelial cell growth and basal medium (ECGM/ECBM, PromoCell). The subculture was split 1:3; every 3-5 days, seed out at ca. 1×10^4 cells/cm^2 and incubated at 37° C. with 5% CO2 with a doubling time 24-48 hours
# Dilution of test compounds: 100× concentrated solutions (concerning to the final assay concentrations) of each test compound were prepared with the appropriate solvent (in DMSO or in water). These 100×compound solutions were further diluted in endothelial cell growth and basal medium (ECBM) 1:7.5 to get a 13.33× concentrated solution. 75 μl of the 13.33×solution was subsequently mixed with 25 μl of 40× concentrated stimulus (solved in ECBM), resulting in a 10×concentrated stimulus/compound mixture. This mixture (100 μl) was incubated for 30 min at 37° C. and then added to 900 μl gel, containing the HUVEC spheroids (resulting in the final assay concentration).
# Test method: the experiments were pursued in modification of the originally published protocol (Korff and Augustin: J Cell Sci 112: 3249-58, 1999). In brief, spheroids were prepared as described (Korff and Augustin: J Cell Biol 143: 1341-52, 1998) by pipetting 400 HUVEC in a hanging drop on plastic dishes to allow overnight spheroid aggregation. 50 HUVEC spheroids were then seeded in 0.9 ml of a collagen gel and pipetted into individual wells of a 24 well plate to allow polymerization. The test compounds were preincubated with the growth factors (FGF-1, FGF-2 or VEGF-A final concentration 25 ng/mL) in a 10-fold concentrated solution and subsequently, 100 μl of this solution was added on top of the polymerized gel. All compounds were diluted in solvent (DMSO or water) as 100×stocks first (which means 100×stocks of each final assay concentration were prepared in solvent). Subsequently, these stocks were further diluted in medium (resulting in the 13.33×stocks of each final assay concentration) with final concentrations tested: 100, 50, 25, 12.5, 6.25, 3.13 and 1.56×10^−6 M). Plates were incubated at 37° C. for 24 hours and fixed by adding 4% PFA (Roth, Karlsruhe, Germany).
# Quantification of growth factor inhibition: sprouting intensity of HUVEC spheroids treated with the growth factor and the inhibitors were quantitated by an image analysis system determining the cumulative sprout length per spheroid (CSL).
# Human neutrophils [2] = experiment: Neutrophil adhesion under static conditions; settings: fMLP-stimulated adhesion to fibrinogen; method: 40 μM and 80 μM, concentration of the value not stated
# Summary of the method: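 Donor buffy-coat neutrophils (3×10^6/ml, PBS with Ca/Mg, 10% FCS, pH 7.2) preincubated 30 min at 37° C with 40 μM or 80 μM compound, then stimulated 1 min at 37° C with 1 nM fMLP on fibrinogen-coated glass. Adherent cells fixed and counted by computer; mean ± SD, unpaired t-test.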
IC50 (Human neutrophils [1]) [µM],IC50 (FGF-2) [µM],IC50 (FGF-1) [µM],IC50 (VEGFR-2) [µM],IC50 (VEGF-A) [µM],Structure (SMILES),inhibition at 0.3 µM (Human neutrophils [1]) [%],Neutrophil adhesion inhibition (Human neutrophils [2]) [%]
2.38,18,29,≥ 100,17,"O=C(O)c1cc(O)c(C(=O)Nc2c(C(=O)O)cccc2C(=O)O)cc1O [Ia-013a, 2-(4-carboxy-2,5-dihydroxybenzamido)isophthalic acid]",38.5,27.67
0.312,59,20,5.7,71,"O=C(O)c1cccc(NC(=O)c2cc(O)c(C(=O)O)cc2O)c1 [Ia-002a, 4-(3-carboxyphenylaminocarbonyl)-2,5-dihydroxybenzoic acid]",42.1,27.92
1,20,20,≥ 100,88,"O=C(O)c1cc(O)c(C(=O)Nc2ccc(C(=O)O)c(C(=O)O)c2)cc1O [Ia-014a, 4-(4-carboxy-2,5-dihydroxybenzamido)phthalic acid]",61.3,9.667
2.54,12,137,≥ 100,34,"O=C(O)c1cc(O)cc(C(=O)Nc2c(C(=O)O)cccc2C(=O)O)c1O [IIa-013a, 2-(3-carboxy-2,5-dihydroxybenzamido)isophthalic acid]",57.7,15.75
2.5,124,≥ 150,≥ 100,210,"O=C(O)c1cc(O)c(C(=O)NCc2ccccc2C(=O)O)cc1O [Ia-053a, 4-(2-Carboxyphenylmethylaminocarbonyl)-2,5-dihydroxybenzoic acid]",52.9,18.67
1.85,36,38,≥ 100,30,"O=C(O)c1ccc(C(=O)O)c(NC(=O)c2cc(O)c(C(=O)O)cc2O)c1 [Ia-012a, 2-(4-carboxy-2,5-dihydroxybenzamido)terephthalic acid]",59.5,28.5
1.2,–,89,11.8,≥ 100,"O=C(O)c1cc(O)c(C(=O)Nc2ccc(O)cc2C(=O)O)cc1O [Ia-006a, 4-(2-carboxy-4-hydroxyphenylaminocarbonyl)-2,5-dihydroxybenzoic acid]",60.6,25.33

# The next lines start with the compound.
Structure (SMILES),IC50 (Human neutrophils [1]) [µM],IC50 (FGF-2) [µM],IC50 (FGF-1) [µM],IC50 (VEGFR-2) [µM],IC50 (VEGF-A) [µM],inhibition at 0.3 µM (Human neutrophils [1]) [%],Neutrophil adhesion inhibition (Human neutrophils [2]) [%]
"O=C(O)c1cc(O)c(C(=O)Nc2cccc(-c3nnn[nH]3)c2)cc1O [Ia-002a-Tz, 4-(3-(1H-tetrazol-5-yl)phenyl-aminocarbonyl)-2,5-dihydroxybenzoic acid]",1.86,53,10,≥ 100,57,66.6,38.5
"O=C(O)c1cc(O)c(CSCc2cc(O)c(C(=O)O)cc2O)cc1O [IIIc-058a, 4-((2,5-Dihydroxy-4-carboxyphenyl)methylthiomethyl)-2,5-dihydroxybenzoic acid]",1.17,12,12,0.29,124,61.2,23
"CCOC(=O)c1cc(O)c(C(=O)Nc2ccccc2C(=O)OCC)cc1O [Ia-001a-E2, ethyl 4-(2-(ethoxycarbonyl)phenylaminocarbonyl)-2,5-dihydroxybenzoate]",2.58,≥ 200,9.2,1.25,123,51.5,50.5
"O=C(O)Cc1cc(O)c(C(=O)Nc2cc(C(=O)O)cc(C(=O)O)c2)cc1O [IIIa-015a, 5-(4-(carboxymethyl)-2,5-dihydroxybenzamido)isophthalic acid]",–,114,16,0.89,202,78.8,12.13
"O=C(O)c1cc(O)cc(C(=O)NCc2ccc(O)c(O)c2)c1O [IIa-035a, 3-(3,4-Dihydroxyphenylmethylaminocarbonyl)-2,5-dihydroxybenzoic acid]",1,61,16,0.52,45,77,36.67
"O=C(O)c1cc(O)c(C(=O)NC(Cc2ccc(O)c(O)c2)C(=O)O)cc1O (stereo not shown) [Ia-035a-3, 4-(1-Carboxy-2-(3,4-dihydroxyphenyl)ethylaminocarbonyl)-2,5-dihydroxybenzoic acid]",0.66,207,34,10,198,79.6,22
COC(=O)c1cc(O)cc(CS(=O)(=O)Cc2cc(O)cc(C(=O)OC)c2O)c1O [IVc-059a-E2],2.64,94,78,2.7,≥ 200,45.7,50.5
"CCOC(=O)Cc1cc(O)c(C(=O)Nc2ccccc2C(=O)OC)cc1O [IIIa-001a-E2, methyl 2-(4-(ethoxycarbonylmethyl)-2,5-dihydroxybenzamido)benzoate]",–,33,≥ 200,–,43,69.7,44.46
"COC(=O)c1cc(NC(=O)c2cc(O)c(C(=O)Nc3ccccc3-c3nnn[nH]3)cc2O)ccc1O [Ic-001a-Tz/004a-E1, methyl 5-(4-(2-(1H-tetrazol-5-yl)phenylaminocarbonyl)-2,5-dihydroxybenzamido)-2-hydroxybenzoate]",–,–,104,0.1,35,74,97.56
